# According to US12337004B2, “Coumarin-modified androgens for the treatment of prostate cancer” (Health Research, Inc., priority 2019, dated 2025):
# Entries after “also recorded” stand apart in the source; their conditions may differ. Counter-ions that a name gives are not always drawn.
# Key:
# AR-V2-GFP = target: T1, AR-V2-GFP (Homo sapiens, UniProt P10275); experiment: ImageStream co-localization with AR-V2-GFP; format: cell-based; details: VCaP and PC-3 cells that stably expressed AR-V2-GFP; hydrochloride
# T1 construct: stably expressed AR170 LBD only with splice variant V2 (AR-V2-GFP); expressed in transfected cells; host or cells: VCaP, PC-3
# T1 sequence (P10275 1-388 isoform P10275-2): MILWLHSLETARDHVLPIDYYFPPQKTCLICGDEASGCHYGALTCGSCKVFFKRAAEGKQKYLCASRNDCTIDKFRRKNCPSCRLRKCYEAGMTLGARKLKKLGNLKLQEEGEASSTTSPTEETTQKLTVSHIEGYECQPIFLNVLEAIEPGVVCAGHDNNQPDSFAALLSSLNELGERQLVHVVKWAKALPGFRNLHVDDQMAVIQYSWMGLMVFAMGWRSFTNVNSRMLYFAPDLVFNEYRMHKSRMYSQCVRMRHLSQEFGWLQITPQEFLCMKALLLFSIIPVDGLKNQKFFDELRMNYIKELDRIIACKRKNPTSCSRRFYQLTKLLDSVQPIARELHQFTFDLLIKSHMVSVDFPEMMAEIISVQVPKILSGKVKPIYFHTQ
# Protocol: (§1) ImageStream studies were repeated using VCaP and PC-3 cells that stably expressed AR-V2 (splice-variant that lacked the N-terminus) with C-terminal GFP (AR-V2-GFP). […] ImageStream data was confirmed using immunoprecipation (IP) studies performed with a DHT-targeted antibody.
# (§2) Serum-free complete media (SFM)^2 was used to androgen deprive cells. PC-3 cells that contained empty plasmid were treated with SFM alone, SFM with C or SFM with DHT-3C.
# CWR-R1 cells = experiment: MTT cell growth, CWR-R1; format: cell-based, human; details: six days; DHT-17C at 20 nM, DHT-3C at 20 nM
# Protocol: (§3) Identification of a 3α-oxidoreductase inhibitors: Various non-steroidal compounds were tested for anti-neoplastic activity by screening against PC-3 CaP cells. Coumarin-labeled androgens were developed to track changes in androgen metabolism pathways in response to castration or androgen metabolism inhibition using in vitro and in vivo CaP cell models.
# (§4) VCaP, CWR-R1 and PC-3 cells were treated for six days with complete culture media (CM), serum-free culture media (SFM), bicalutamide (Bic) at 10 μM, the coumarin C at 20 μM, DHT at 10 nM, DHT-17C at 20 nM and DHT-3C at 20 nM (FIG. 20). […] MTT analysis was performed to compare cell growth impairment of VCaP cells treated with DHT-17C versus enzalutamide. Cells were treated with DHT-17C at 1 nM, 12 nM, 20 nM, 50 nM or 100 nM concentrations, or enzalutamide at 1 μM, 12 μM, 20 μM, 50 μM or 100 μM concentrations. […] MTT performed using ezanlutamide (20 uM) or DHT-17C (50 nM) treated mutant AR and AR-V7 positive CWR-R1 cells supported VCaP MTT data (FIG. 22).
# LNCaP cells = experiment: MTT cell growth, LNCaP; format: cell-based; details: six days; data not shown
# [1] = system: AR- or AR-GFP negative PC-3 cells; experiment: ImageStream nuclear localization in AR-negative PC-3 cells; format: cell-based; details: PC-3 cells without AR or AR-GFP (empty plasmid); hydrochloride
# Protocol: as §1, §2
# KLK2 [2] = experiment: Western blot of AR-regulated protein expression; format: cell-based; details: CaP cell lines
# CaP cell lines = experiment: MTT CaP cell growth during androgen deprivation, cell line panel; format: cell-based; details: SFM with DHT-3C, six days
# Text: MTT analysis was used to assess if treatment with DHT-3C facilitated CaP cell growth during androgen deprivation. […] SFM with DHT-3C stimulated growth in 3 of 5 cell lines (FIG. 25).
# KLK2 [3] = experiment: qRT-PCR of AR-regulated gene KLK2; format: cell-based; details: 24 hours; VCaP, LAPC-4, LNCaP, CWR-R1 and 22rv1 cells
# AR-GFP = target: T2, AR-GFP (Homo sapiens, UniProt P10275); experiment: ImageStream nuclear co-localization with AR-GFP; format: cell-based
# T2 construct: expressed in transfected cells; host or cells: VCaP, PC-3 (also LAPC-4, CWR-R1, 22Rv1, DU145)
# T2 sequence (P10275 1-920): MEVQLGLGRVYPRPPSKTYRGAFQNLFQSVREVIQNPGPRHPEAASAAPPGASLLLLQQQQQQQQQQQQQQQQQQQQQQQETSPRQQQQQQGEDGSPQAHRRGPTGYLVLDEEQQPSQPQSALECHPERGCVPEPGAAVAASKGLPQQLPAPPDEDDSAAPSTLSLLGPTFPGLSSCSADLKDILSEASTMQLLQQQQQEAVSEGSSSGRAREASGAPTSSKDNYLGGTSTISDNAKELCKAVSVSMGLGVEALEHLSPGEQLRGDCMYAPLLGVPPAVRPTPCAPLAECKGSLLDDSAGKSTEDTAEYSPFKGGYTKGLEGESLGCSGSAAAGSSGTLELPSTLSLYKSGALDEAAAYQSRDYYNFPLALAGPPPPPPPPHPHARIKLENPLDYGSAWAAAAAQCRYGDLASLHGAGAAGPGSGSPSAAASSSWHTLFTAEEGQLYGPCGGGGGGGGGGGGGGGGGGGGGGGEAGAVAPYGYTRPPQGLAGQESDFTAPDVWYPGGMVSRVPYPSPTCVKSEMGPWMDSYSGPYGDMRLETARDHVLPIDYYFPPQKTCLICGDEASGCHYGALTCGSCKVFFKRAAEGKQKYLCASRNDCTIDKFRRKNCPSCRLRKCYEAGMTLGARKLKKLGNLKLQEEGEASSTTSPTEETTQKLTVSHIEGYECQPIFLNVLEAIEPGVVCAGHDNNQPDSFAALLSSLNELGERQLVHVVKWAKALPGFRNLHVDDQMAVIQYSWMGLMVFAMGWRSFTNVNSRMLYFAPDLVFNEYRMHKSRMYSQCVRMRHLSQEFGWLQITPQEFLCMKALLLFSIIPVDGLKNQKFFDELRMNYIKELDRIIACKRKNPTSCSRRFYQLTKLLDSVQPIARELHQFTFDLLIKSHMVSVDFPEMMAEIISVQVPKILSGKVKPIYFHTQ
# Text: Androgen-sensitive AR-positive LAPC-4 and VCaP, castration-recurrent and AR-positive CWR-R1 and CWR-22rv1 (22rv1), and AR-negative PC-3 and DU145 cells were transfected with either an empty pCMV expression plasmid (control) or a pCMV plasmid that encoded a wild-type AR tagged with a C-terminal green fluorescent protein (GFP; AR-GFP). AR-positive CaP cell lines were transfected with AR-GFP to assess if DHT-17C or DHT-3C co-localized with AR and translocated to the nucleus.
# AR positive CaP cell lines were treated for 16 hours with androgen-free, serum-free complete media (SFM) alone, or SFM that contained 20 nM or 50 nM fluorescent-androgens or C alone. The time points were chosen to measure differences in uptake of the fluorescent-androgens and nuclear or cytosolic localization of the fluorescent-androgens and/or AR-GFP.
# Serum-free complete media (SFM)^2 was used to androgen deprive cells.
# LAPC-4 cells = experiment: MTT cell growth, LAPC-4; format: cell-based; details: six days; data not shown
# VCaP cells = experiment: MTT cell growth, VCaP; format: cell-based
# Protocol: as §3, §4
# CRPC = details: cited from earlier work
SMILES,co-localization with AR-V2-GFP (AR-V2-GFP),CWR-R1 cell growth (MTT) (CWR-R1 cells),LNCaP cell growth (MTT) (LNCaP cells),nuclear localization in AR-negative cells [1],AR-regulated protein expression levels (KLK2 [2]),cell lines with stimulated growth (CaP cell lines),KLK2 transcript induction (KLK2 [3]),"nuclear co-localization with AR-GFP (AR-GFP; PC-3-AR-GFP cells, SFM)",nuclear co-localization with AR-GFP (AR-GFP; VCaP that stably expressed AR-GFP),nuclear co-localization with AR-GFP and DRAQ5 (AR-GFP; VCaP-AR-GFP and PC-3-AR-GFP cells),LAPC-4 cell growth (MTT) (LAPC-4 cells),"VCaP cell growth (MTT) (VCaP cells; six days, DHT-17C at 20 nM, DHT-3C at 20 nM)","VCaP cell growth impairment versus DHT-17C (VCaP cells; enzalutamide at 1, 12, 20, 50 or 100 μM)",extension of survival (CRPC) [months]
"C[C@]12CC[C@]3(C[C@@H]1CC[C@@H]1[C@@H]2CC[C@]2(C)[C@@H](O)CC[C@@H]12)NCCc1c3c(=O)oc2c3c4c(cc12)CCCN4CCC3 [DHT-3C, (3R,5S,10S,13S,17S)-17-hydroxy-10,13-dimethyl-1,2,2′,3′,4,5,6,7,8,8′,9,9′,10,11,12,12′,13,13′,14,15,16,17-docosahydro-7′H,11′H-spiro[cyclopenta[a]phenanthrene-3,4′-pyrido[3,2,1-ij]pyrido[4′,3′:4,5]pyrano[2,3-j]quinolin]-5′(1′H)-one hydrochloride]",co-localized with DRAQ5 and AR-V2-GFP; also recorded: co-localized with the AR LBD,promoted,"promoted VCaP, LAPC-4, and LNCaP cell growth",did not produce nuclear fluorescence,produced similar AR-regulated protein expression levels,3 of 5,produced similar inductions of expression,showed nuclear co-localization between DHT-3C and AR-GFP,demonstrated co-localization between DHT-3C and AR-GFP,co-localized with AR-GFP,"promoted VCaP, LAPC-4, and LNCaP cell growth","promoted VCaP, LAPC-4, and LNCaP cell growth",,
"CNC(=O)c1ccc(N2C(=S)N(c3ccc(C#N)c(C(F)(F)F)c3)C(=O)C2(C)C)cc1F [enzalutamide, reference compound]",,,,,,,,,,,,,impaired VCaP cell growth to similar extents,4.8
